Converted amounts (≈) assume the structure as drawn. Read-outs that look alike come from different tables or passages of the source.
How the values were obtained:
Test in all cases: microbe, parasite or virus in culture
Assay type in all cases: cell-based
M. tbc PRAHA 1 = conditions: Mycobacterium tuberculosis, read-out: Minimum inhibitory concentrations M. tbc PRAHA 1
M. tbc PRAHA 131 = conditions: Mycobacterium tuberculosis, read-out: Minimum inhibitory concentrations M. tbc PRAHA 131
M. tbc PRAHA 4 = conditions: Mycobacterium tuberculosis, read-out: Minimum inhibitory concentrations M. tbc PRAHA 4
M. tbc 9449/2007 = conditions: Mycobacterium tuberculosis, read-out: Minimum inhibitory concentrations M. tbc 9449/2007
M. tbc 234/2005 = conditions: Mycobacterium tuberculosis, read-out: Minimum inhibitory concentrations M. tbc 234/2005
[1] = test system: four MDR-TB strains and one XDR-TB strain; conditions: Mycobacterium tuberculosis, read-out: MIC against resistant M. tuberculosis strains

Row | SMILES | MIC (M. tbc PRAHA 1; PRAHA1, 336 h) | MIC (M. tbc PRAHA 1; PRAHA1, 504 h) | MIC (M. tbc PRAHA 131; PRAHA131, 336 h) | MIC (M. tbc PRAHA 131; PRAHA131, 504 h) | MIC (M. tbc PRAHA 4; PRAHA4, 336 h) | MIC (M. tbc PRAHA 4; PRAHA4, 504 h) | MIC (M. tbc 9449/2007; 9449/2007, 336 h) | MIC (M. tbc 9449/2007; 9449/2007, 504 h) | MIC (M. tbc 234/2005; 234/2005, 336 h) | MIC (M. tbc 234/2005; 234/2005, 504 h) | MIC [1]
1 | NNC(=O)c1ccncc1 [INH, isoniazid, reference compound] | 15.6 µM (≈ 2.14 µg/mL) | 15.6 µM (≈ 2.14 µg/mL) | 15.6 µM (≈ 2.14 µg/mL) | 31.2 µM (≈ 4.29 µg/mL) | 15.6 µM (≈ 2.14 µg/mL) | 31.2 µM (≈ 4.29 µg/mL) | 62.5 µM (≈ 8.57 µg/mL) | 62.5 µM (≈ 8.57 µg/mL) | 15.6 µM (≈ 2.14 µg/mL) | 15.6 µM (≈ 2.14 µg/mL) | 
2 | NC(=O)c1nccnc1NCc1ccc(N)cc1 [Compound 9, 3-[(4-Aminobenzyl)amino]pyrazine-2-carboxamide] | 62.5 µM (≈ 15.2 µg/mL) | 62.5 µM (≈ 15.2 µg/mL) | 62.5 µM (≈ 15.2 µg/mL) | 125 µM (≈ 30.4 µg/mL) | 62.5 µM (≈ 15.2 µg/mL) | 62.5 µM (≈ 15.2 µg/mL) | 62.5 µM (≈ 15.2 µg/mL) | 62.5 µM (≈ 15.2 µg/mL) | 62.5 µM (≈ 15.2 µg/mL) | 62.5 µM (≈ 15.2 µg/mL) | 62.5 µM (≈ 15.2 µg/mL)
3 | Cc1ccc(CNc2nccnc2C(N)=O)cc1 [Compound 8, 3-[(4-Methylbenzyl)amino]pyrazine-2-carboxamide] | 250 µM (≈ 60.6 µg/mL) | 250 µM (≈ 60.6 µg/mL) | 250 µM (≈ 60.6 µg/mL) | 250 µM (≈ 60.6 µg/mL) | 250 µM (≈ 60.6 µg/mL) | 250 µM (≈ 60.6 µg/mL) | 250 µM (≈ 60.6 µg/mL) | 250 µM (≈ 60.6 µg/mL) | 250 µM (≈ 60.6 µg/mL) | 250 µM (≈ 60.6 µg/mL) | 250 µM (≈ 60.6 µg/mL)
4 | CO[C@H]1/C=C/O[C@@]2(C)Oc3c(C)c(O)c4c(O)c(c(/C=N/N5CCN(C)CC5)c(O)c4c3C2=O)NC(=O)/C(C)=C\C=C\[C@H](C)[C@H](O)[C@@H](C)[C@@H](O)[C@@H](C)[C@H](OC(C)=O)[C@@H]1C [RFM, rifampicin, reference compound] | > 15.6 µM | > 15.6 µM | > 15.6 µM | > 15.6 µM | > 15.6 µM | > 15.6 µM | > 15.6 µM | > 15.6 µM | > 15.6 µM | > 15.6 µM | 

From PMC6155776, “Synthesis of Novel Pyrazinamide Derivatives Based on 3-Chloropyrazine-2-carboxamide and Their Antimicrobial Evaluation” (Molecules : A Journal of Synthetic Chemistry and Natural …, 2017)
